According to patent US8877748B2, “Heterocyclic fused anthraquinone derivatives, manufacturing method and pharmaceutical composition using thereof” (National Defense Medical Center, priority 2012, dated 2014):

How the values were obtained:
[1] = tested on: PC-3 prostate cancer cell line; test: SRB assay cell viability, PC-3 prostate cancer cell line; type: cell-based, human; details: Homo sapiens, PC-3 prostate cancer cell line, Table II prints no unit, μM printed, read-out: SRB assay: 50% inhibition of cancer cell proliferation of sample concentration (IC50) of PC-3 prostate cancer cell line
CCRF-CEM = test: NCI screening platform one-dose single concentration screening, leukemia CCRF-CEM; type: cell-based, human; details: 10 μM
HL-60, TB = test: NCI one-dose screening, leukemia HL-60, TB; type: cell-based, human; details: 10 μM
MOLT-4 = test: NCI one-dose screening, leukemia MOLT-4; type: cell-based, human; details: 10 μM
SR = test: NCI one-dose screening, leukemia SR; type: cell-based, human; details: 10 μM
PRMI-8226 cell line = test: NCI one-dose screening, leukemia PRMI-8226; type: cell-based, human; details: 10 μM
K562cell line = test: NCI one-dose screening, leukemia K562; type: cell-based, human; details: 10 μM
EKVX = test: NCI one-dose screening, non-small cell lung cancer EKVX; type: cell-based, human; details: 10 μM
HOP-62 = test: NCI one-dose screening, non-small cell lung cancer HOP-62; type: cell-based, human; details: 10 μM
HOP-92 = test: NCI one-dose screening, non-small cell lung cancer HOP-92; type: cell-based, human; details: 10 μM
NCI-H226 = test: NCI one-dose screening, non-small cell lung cancer NCI-H226; type: cell-based, human; details: 10 μM
NCI-H23 = test: NCI one-dose screening, non-small cell lung cancer NCI-H23; type: cell-based, human; details: 10 μM
NCI-H322M = test: NCI one-dose screening, non-small cell lung cancer NCI-H322M; type: cell-based, human; details: 10 μM; Non-small cell lung cancer
NCI-H460 = test: NCI one-dose screening, non-small cell lung cancer NCI-H460; type: cell-based, human; details: 10 μM
NCI-H522 = test: NCI one-dose screening, non-small cell lung cancer NCI-H522; type: cell-based, human; details: 10 μM
A549/ATCC = test: NCI one-dose screening, non-small cell lung cancer A549/ATCC; type: cell-based, human; details: 10 μM
COLO 205 = test: NCI one-dose screening, colon cancer COLO 205; type: cell-based, human; details: 10 μM
HCC-2998 = test: NCI one-dose screening, colon cancer HCC-2998; type: cell-based, human; details: 10 μM
HCT-116 = test: NCI one-dose screening, colon cancer HCT-116; type: cell-based, human; details: 10 μM
HCT-15 = test: NCI one-dose screening, colon cancer HCT-15; type: cell-based, human; details: 10 μM
KM12 = test: NCI one-dose screening, colon cancer KM12; type: cell-based, human; details: 10 μM
SF-268 = test: NCI one-dose screening, CNS cancer SF-268; type: cell-based, human; details: 10 μM
SF-295 = test: NCI one-dose screening, CNS cancer SF-295; type: cell-based, human; details: 10 μM
SF-539 = test: NCI one-dose screening, CNS cancer SF-539; type: cell-based, human; details: 10 μM
SNB-19 = test: NCI one-dose screening, CNS cancer SNB-19; type: cell-based, human; details: 10 μM
SNB-75 = test: NCI one-dose screening, CNS cancer SNB-75; type: cell-based, human; details: 10 μM
U251 = test: NCI one-dose screening, CNS cancer U251; type: cell-based, human; details: 10 μM
LOX IMVI = test: NCI one-dose screening, melanoma LOX IMVI; type: cell-based, human; details: 10 μM
MALME-3M = test: NCI one-dose screening, melanoma MALME-3M; type: cell-based, human; details: 10 μM
M14 = test: NCI one-dose screening, melanoma M14; type: cell-based, human; details: 10 μM
UACC-62 = test: NCI one-dose screening, melanoma UACC-62; type: cell-based, human; details: 10 μM
UACC-257 = test: NCI one-dose screening, melanoma UACC-257; type: cell-based, human; details: 10 μM
SK-MEL-2 = test: NCI one-dose screening, melanoma SK-MEL-2; type: cell-based, human; details: 10 μM
SK-MEL-28 = test: NCI one-dose screening, melanoma SK-MEL-28; type: cell-based, human; details: 10 μM
SK-MEL-5 = test: NCI one-dose screening, melanoma SK-MEL-5; type: cell-based, human; details: 10 μM
IGROV1 = test: NCI one-dose screening, ovarian cancer IGROV1; type: cell-based, human; details: 10 μM
OVCAR-3 = test: NCI one-dose screening, ovarian cancer OVCAR-3; type: cell-based, human; details: 10 μM
OVCAR-4 = test: NCI one-dose screening, ovarian cancer OVCAR-4; type: cell-based, human; details: 10 μM
OVCAR-8 = test: NCI one-dose screening, ovarian cancer OVCAR-8; type: cell-based, human; details: 10 μM
SK-OV-3 = test: NCI one-dose screening, ovarian cancer SK-OV-3; type: cell-based, human; details: 10 μM
786-O = test: NCI one-dose screening, renal cancer 786-O; type: cell-based, human; details: 10 μM
CAKI-1 = test: NCI one-dose screening, renal cancer CAKI-1; type: cell-based, human; details: 10 μM
[2] = NCI one-dose screening, renal cancer A489; type: cell-based, human; details: 10 μM
SN12C = test: NCI one-dose screening, renal cancer SN12C; type: cell-based, human; details: 10 μM
TK-10 = test: NCI one-dose screening, renal cancer TK-10; type: cell-based, human; details: 10 μM
UO-31 = test: NCI one-dose screening, renal cancer UO-31; type: cell-based, human; details: 10 μM
RXF, 393 = test: NCI one-dose screening, renal cancer RXF, 393; type: cell-based, human; details: 10 μM
DU145 = test: NCI one-dose screening, prostate cancer DU145; type: cell-based, human; details: 10 μM
PC-3 = test: NCI one-dose screening, prostate cancer PC-3; type: cell-based, human; details: 10 μM
MCF7 = test: NCI one-dose screening, breast cancer MCF7; type: cell-based, human; details: 10 μM
HS 578-T = test: NCI one-dose screening, breast cancer HS 578-T; type: cell-based, human; details: 10 μM; Breast cancer
MDA-MB-231/ATCC = test: NCI one-dose screening, breast cancer MDA-MB-231/ATCC; type: cell-based, human; details: 10 μM
MDA-MB-468 = test: NCI one-dose screening, breast cancer MDA-MB-468; type: cell-based, human; details: 10 μM
NCl/ADR-RES = test: NCI one-dose screening, breast cancer NCl/ADR-RES; type: cell-based, human; details: 10 μM; listed under Ovarian cancer
BT-549 = test: NCI one-dose screening, breast cancer BT-549; type: cell-based, human; details: 10 μM
T-47D = test: NCI one-dose screening, breast cancer T-47D; type: cell-based, human; details: 10 μM
MDA, -MB-435 = test: NCI one-dose screening, breast cancer MDA, -MB-435; type: cell-based, human; details: 10 μM; listed under Melanoma
human tumor cell lines = test: NCI one-dose screening, Mean / Delta / Range of growth percent over all tested cell lines; type: cell-based; details: 10 μM

## O=C1c2ccccc2C(=O)c2c1cc(N1CCOCC1)c1nsnc21 [C10, 4-morpholino-anthra[2,1-c][1,2,5] thiadiazol-6,11-dione]
[1]
  IC50: 3.75 µM
CCRF-CEM
  Growth Percent CCRF-CEM: 48.31%
HL-60, TB
  Growth Percent HL-60(TB): 66.73%
MOLT-4
  Growth Percent MOLT-4: 47.64%
SR
  Growth Percent SR: 68.92%
PRMI-8226 cell line
  Growth Percent RPMI-8226: 61.17%
K562cell line
  Growth Percent K562: 48.27%
EKVX
  Growth Percent EKVX: 84.52%
HOP-62
  Growth Percent HOP-62: 60.63%
HOP-92
  Growth Percent HOP-92: 90.59%
NCI-H226
  Growth Percent NCI-H226: 87.42%
NCI-H23
  Growth Percent NCI-H23: 39.65%
NCI-H322M
  Growth Percent NCI-H322M: 98.00%
NCI-H460
  Growth Percent NCI-H460: 88.64%
NCI-H522
  Growth Percent NCI-H522: 79.03%
A549/ATCC
  Growth Percent A549/ATCC: 100.58%
COLO 205
  Growth Percent COLO 205: 104.19%
HCC-2998
  Growth Percent HCC-2998: 107.48%
HCT-116
  Growth Percent HCT-116: 18.89%
HCT-15
  Growth Percent HCT-15: 55.97%
KM12
  Growth Percent KM12: 83.91%
SF-268
  Growth Percent SF-268: 75.83%
SF-295
  Growth Percent SF-295: 95.84. Percent
SF-539
  Growth Percent SF-539: 88.62%
SNB-19
  Growth Percent SNB-19: 84.82%
SNB-75
  Growth Percent SNB-75: 51.11%
U251
  Growth Percent U251: 59.35%
LOX IMVI
  Growth Percent LOX IMVI: 13.57%
MALME-3M
  Growth Percent MALME-3M: 61.99%
M14
  Growth Percent M14: 75.06%
UACC-62
  Growth Percent UACC-62: 62.43%
UACC-257
  Growth Percent UACC-257: 79.36%
SK-MEL-2
  Growth Percent SK-MEL-2: 88.38%
SK-MEL-28
  Growth Percent SK-MEL-28: 104.55%
SK-MEL-5
  Growth Percent SK-MEL-5: 15.98%
IGROV1
  Growth Percent IGROV1: 54.88%
OVCAR-3
  Growth Percent OVCAR-3: 6.64%
OVCAR-4
  Growth Percent OVCAR-4: 28.69%
OVCAR-8
  Growth Percent OVCAR-8: 43.29%
SK-OV-3
  Growth Percent SK-OV-3: 104.65%
786-O
  Growth Percent 786-0: 109.16%
CAKI-1
  Growth Percent CAKI-1: 61.73%
[2]
  Growth Percent A498: 88.30%
SN12C
  Growth Percent SN12C: 71.73%
TK-10
  Growth Percent TK-10: 131.28%
UO-31
  Growth Percent UO-31: 53.93%
RXF, 393
  Growth Percent RXF 393: 98.14%
DU145
  Growth Percent DU145: 68.98%
PC-3
  Growth Percent PC-3: 56.59%
MCF7
  Growth Percent MCF7: 55.12%
HS 578-T
  Growth Percent HS 578T: 88.35%
MDA-MB-231/ATCC
  Growth Percent MDA-MB-231/ATCC: 39.16%
MDA-MB-468
  Growth Percent MDA-MB-468: 45.59%
NCl/ADR-RES
  Growth Percent NCI/ADR-RES: 43.58%
BT-549
  Growth Percent BT-549: 93.78%
T-47D
  Growth Percent T-47D: 60.04%
MDA, -MB-435
  Growth Percent MDA-MB-435: 0.52%
other
  melting point: 259 to 260 °C
Human tumor cell lines; delta over all cell lines
  Growth Percent Delta: 67.45%
Human tumor cell lines; mean over all cell lines
  Growth Percent Mean: 67.97%
Human tumor cell lines; range over all cell lines
  Growth Percent Range: 130.76%
